Source: paper PMC3914206

Columns and labels:
Format in all cases: binding
Conditions in all cases: Compound Concentration 10 µM
panel of 442 kinases [1] = molecular target: T1, panel of 442 kinases (Homo sapiens, UniProt O43293)
T1 construct: purchased KINOMEscan
From the text: (§1) We assessed the selectivity of members of this scaffold using the KINOMEscan methodology across a near comprehensive panel of 442 kinases [[18,27]].

panel of 442 kinases [2] = molecular target: T2, panel of 442 kinases (Homo sapiens, UniProt Q00535)
T2 construct: purchased KINOMEscan
From the text: as §1

panel of 442 kinases [3] = molecular target: T3, panel of 442 kinases (Homo sapiens, UniProt Q9Y616)
T3 construct: purchased KINOMEscan
T3 sequence (Q9Y616 1-596): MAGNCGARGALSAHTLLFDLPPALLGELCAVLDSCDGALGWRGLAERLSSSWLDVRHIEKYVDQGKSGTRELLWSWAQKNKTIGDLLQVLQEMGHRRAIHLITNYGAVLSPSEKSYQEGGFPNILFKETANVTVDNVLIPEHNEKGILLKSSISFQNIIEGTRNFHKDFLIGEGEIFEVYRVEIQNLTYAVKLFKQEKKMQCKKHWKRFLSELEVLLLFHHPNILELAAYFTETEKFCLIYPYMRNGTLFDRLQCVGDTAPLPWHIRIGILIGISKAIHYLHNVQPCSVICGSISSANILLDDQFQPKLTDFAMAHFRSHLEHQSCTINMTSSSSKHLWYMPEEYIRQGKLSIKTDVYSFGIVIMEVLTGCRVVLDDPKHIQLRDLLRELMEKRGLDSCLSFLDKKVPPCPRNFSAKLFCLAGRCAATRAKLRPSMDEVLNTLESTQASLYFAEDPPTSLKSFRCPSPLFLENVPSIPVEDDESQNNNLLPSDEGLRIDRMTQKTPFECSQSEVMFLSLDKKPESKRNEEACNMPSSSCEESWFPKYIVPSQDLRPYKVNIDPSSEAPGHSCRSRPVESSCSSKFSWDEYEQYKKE
From the text: as §1

T1 sequence (O43293 whole entry): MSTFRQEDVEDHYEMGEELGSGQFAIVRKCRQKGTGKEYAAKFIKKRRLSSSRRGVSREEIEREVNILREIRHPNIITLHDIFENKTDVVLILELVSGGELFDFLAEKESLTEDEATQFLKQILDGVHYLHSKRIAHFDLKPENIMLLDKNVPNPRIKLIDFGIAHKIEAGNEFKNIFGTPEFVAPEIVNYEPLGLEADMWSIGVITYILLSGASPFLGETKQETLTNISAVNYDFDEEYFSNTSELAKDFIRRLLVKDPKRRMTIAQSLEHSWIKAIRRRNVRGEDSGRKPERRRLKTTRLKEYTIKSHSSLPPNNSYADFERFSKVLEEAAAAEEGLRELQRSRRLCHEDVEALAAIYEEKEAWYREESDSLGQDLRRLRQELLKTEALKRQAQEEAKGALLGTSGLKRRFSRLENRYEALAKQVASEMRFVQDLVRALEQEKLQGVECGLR
T2 sequence (Q00535 whole entry): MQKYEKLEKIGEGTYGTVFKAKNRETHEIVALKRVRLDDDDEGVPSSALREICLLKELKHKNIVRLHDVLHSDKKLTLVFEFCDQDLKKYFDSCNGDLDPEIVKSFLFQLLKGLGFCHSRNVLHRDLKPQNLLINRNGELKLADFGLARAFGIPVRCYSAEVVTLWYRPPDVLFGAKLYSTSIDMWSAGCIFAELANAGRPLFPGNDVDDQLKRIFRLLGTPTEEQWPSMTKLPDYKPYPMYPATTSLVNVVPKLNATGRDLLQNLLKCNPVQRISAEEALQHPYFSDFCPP

| SMILES | KINOMEscan: DAPK3 (panel of 442 kinases [1]) | KINOMEscan: CDK5 (panel of 442 kinases [2]) | KINOMEscan: IRAK3 (panel of 442 kinases [3]) |
| --- | --- | --- | --- |
| COc1cc(C(=O)N2CCC(N3CCN(C)CC3)CC2)ccc1Nc1ncc2c(n1)N(C1CCCC1)c1ccccc1C(=O)N2C [Compound 25, 11-cyclopentyl-2-((2-methoxy-4-(4-(4-methylpiperazin-1-yl)piperidine-1-carbonyl)phenyl)amino)-5-methyl-5H-benzo[e]pyrimido[5,4-b][1,4]diazepin-6(11H)-one] | 86 | 94 | 100 |
| CCOc1cc(C(=O)N2CCC(N3CCN(C)CC3)CC2)ccc1Nc1ncc2c(n1)N(C1CCCC1)c1ccccc1C(=O)N2C [Compound 26] | 100 | 100 | 100 |
| COc1cc(C(=O)N2CCC(N3CCN(C)CC3)CC2)ccc1Nc1ncc2c(n1)N(C)c1ccccc1C(=O)N2C [15 (LRRK2-IN-1)] | 67 | 81 | 100 |
